In paper PMC10354055, “An optimized Nurr1 agonist provides disease-modifying effects in Parkinson’s disease models” (Nature Communications, 2023):
Several values for one entry are separate records, joined by “and”; a condition that tells them apart may be missing. Equal values may be shown once.

How the values were obtained:
[1] = tested on: HeLa cells; experiment: Autophagolysosome (APL) formation assay, mRFP-GFP-LC3, HeLa cells; format: cell-based; conditions: EBSS, BafA1 10 nM, CQ 20 µM, 4A7C-301 1 µM
Protocol: Nurr1 transactivity was normalized to β-galactosidase activity.
(§1) HeLa and N27-A cells were transfected with tandem mRFP-GFP-LC3 (Addgene) plasmid using Lipofectamine 2000 (Invitrogen) in 24-well plates. After 24 h, cells were incubated in starvation medium (Earle’s Balanced Salt Solution, EBSS; Lonza) containing bafilomycin A1 (BafA1, 10 nM), CQ (20 µM), or 4A7C-301 (1 µM) for 6 h and then fixed with 4% formaldehyde for fluorescence detection. Images were taken using a KEYENCE microscope and red (mRFP) LC3 dots and yellow (mRFP+GFP) LC3 dots were counted from three independent wells for each treatment group. 10 cells were randomly selected and counted from each well and a total of 30 cells were analyzed for each treatment group in both HeLa and N27-A cells.

[2] = tested on: N27-A cells; experiment: Autophagolysosome (APL) formation assay, mRFP-GFP-LC3, N27-A cells; format: cell-based, rat; conditions: Figure 3b; mRFP-GFP-LC3; individual cells (30 per treatment)
Protocol: as §1

[3] = tested on: HeLa cells; experiment: Lysosomal pH detection, LysoSensor, HeLa cells; format: cell-based
Protocol: (§2) Lysosomal pH was detected as previously described. Briefly, after incubation in EBSS containing BafA1 (10 nM), CQ (20 µM), or 4A7C-301 (1 µM) for 6 h, HeLa and N27-A cells were treated with LysoSensor™ Yellow/Blue DND-160 (5 µM; Life Technology) for 45 min, followed by 2 washes in HEPES buffer (Gibco). Fluorescence images at excitation/emission wavelengths of 360/460 nm and 470/525 nm were taken immediately using a 400 nm dichroic mirror (KEYENCE). The ratio of fluorescence intensities (F360/470) were measured and calculated manually using ImageJ for each cell. The average pH from measuring 5 cells from each of three wells for each treatment group in both HeLa and N27-A cells was calculated by fitting the F360/470 values to a plotted pH calibration curve with KCl/NaCl buffered from pH 3.5 to 7.0 using GraphPad Prism (Version 8.0.2).

[4] = tested on: N27-A cells; experiment: Lysosomal pH detection, LysoSensor, N27-A cells; format: cell-based, rat
Protocol: as §2

[5] = tested on: HeLa cells; experiment: Autophagic flux, Western blot LC3B and p62, HeLa cells; format: cell-based; conditions: for Relative LC3B-II experession (normalized to β-actin): Supplementary Figure S7f; for Relative p62 experession (normalized to β-actin): Supplementary Figure S7g
Protocol: (§3) Experiments were confirmed by duplicate measurements of the same sample. Quantification of immunoreactive bands was performed using ImageJ software (NIH, Bethesda, MD, USA) and expressed as a relative ratio against β-actin.
(§4) The band intensities were quantified using ImageJ and normalized against β-actin.

[6] = tested on: N27-A cells; experiment: Autophagic flux, Western blot LC3B and p62, N27-A cells; format: cell-based, rat; conditions: individual replicates
Protocol: as §3, §4

With `CO/C1=C\C(C)=C\[C@@H](C)[C@@H](O)[C@@H](C)C/C(C)=C/C=C/[C@H](OC)[C@@H]([C@@H](C)[C@@H](O)[C@H](C)[C@@]2(O)C[C@@H](O)[C@H](C)[C@@H](C(C)C)O2)OC1=O` [BafA1, bafilomycin A1] the “APL formation / autophagy (in words)” value [1] was “completely inhibited”, the “LC3 dots/cell, Red LC3 dots” value [2] was 1 dots/cell (14×) and 2 dots/cell (6×) and 0 dots/cell (8×) and 5 dots/cell and 3 dots/cell and the “LC3 dots/cell, Yellow LC3 dots” value [2] was 28 dots/cell (2×) and 29 dots/cell (3×) and 21 dots/cell and 37 dots/cell (2×) and 20 dots/cell and 41 dots/cell (2×) and 27 dots/cell (2×) and 31 dots/cell (6×) and 18 dots/cell and 32 dots/cell and 40 dots/cell (2×) and 38 dots/cell and 33 dots/cell and 36 dots/cell and 24 dots/cell and 22 dots/cell and 30 dots/cell and 23 dots/cell. The “lysosomal pH (in words)” value ([3]; HeLa, BafA1 10 nM, CQ 20 µM, 4A7C-301 1 µM) was “significantly increased”, the “Lysosomal pH” value ([3]; Supplementary Figure S7d, individual replicates) was 6.632 and 6.371 and 6.762 and 6.208 and 6.436 and 6.697 and 6.241 and 7.055 and 6.469 and 6.827 and 6.045 and the “Lysosomal pH” value ([4]; Figure 3d, individual replicates) was 6.143 and 6.404 and 6.371 and 6.241 and 6.729 and 6.827 and 6.567 and 6.11 and 6.469 and 6.925 and 6.664 and 6.078 and 6.045. The “lysosomal pH (in words)” value ([4]; N27-A, BafA1 10 nM, CQ 20 µM, 4A7C-301 1 µM) was “significantly increased”, the “autophagic flux (in words)” value ([5]; HeLa, LC3B-II and p62) was “failed to terminate” and the “Relative LC3B-II experession (normalized to β-actin)” value ([5]; time 0h) was 0.339 and 0.384 and 0.423. The “Relative LC3B-II experession (normalized to β-actin)” value ([5]; time 0.5h) was 0.689 and 0.867 and 0.926, the “Relative LC3B-II experession (normalized to β-actin)” value ([5]; time 1h) was 0.885 and 1.051 and 1.126 and the “Relative LC3B-II experession (normalized to β-actin)” value ([5]; time 2h) was 0.981 and 1.172 and 1.156. For the same compound, the “Relative LC3B-II experession (normalized to β-actin)” value ([5]; time 4h) was 1.098 and 1.172 and 1.288, the “Relative p62 experession (normalized to β-actin)” value ([5]; time 0h) was 0.909 and 0.809 and 0.904 and the “Relative p62 experession (normalized to β-actin)” value ([5]; time 0.5h) was 0.781 and 0.847 and 0.974. For the same compound, the “Relative p62 experession (normalized to β-actin)” value ([5]; time 1h) was 0.754 and 0.822 and 0.940, the “Relative p62 experession (normalized to β-actin)” value ([5]; time 2h) was 0.804 and 0.850 and 0.987 and the “Relative p62 experession (normalized to β-actin)” value ([5]; time 4h) was 0.978 and 0.992 and 1.169. For the same compound, the “Relative LC3B-II experession (normalized to β-actin)” value ([6]; Figure 3f, w/ MPP+, 0h) was 0.733 and 0.699 and 0.753, the “Relative LC3B-II experession (normalized to β-actin)” value ([6]; Figure 3f, w/ MPP+, 4h) was 1.710 and 1.577 and 1.762 and the “Relative LC3B-II experession (normalized to β-actin)” value ([6]; Figure 3f, w/o MPP+, 0h) was 0.546 and 0.525 and 0.431. For the same compound, the “Relative LC3B-II experession (normalized to β-actin)” value ([6]; Figure 3f, w/o MPP+, 4h) was 1.603 and 1.576 and 1.411, the “Relative LC3B-II experession (normalized to β-actin)” value ([6]; Figure 3g, w/ MPP+, 0h) was 1.449 and 1.354 and 1.694 and the “Relative LC3B-II experession (normalized to β-actin)” value ([6]; Figure 3g, w/ MPP+, 4h) was 1.439 and 1.341 and 1.659. For the same compound, the “Relative LC3B-II experession (normalized to β-actin)” value ([6]; Figure 3g, w/o MPP+, 0h) was 1.447 and 1.262 and 1.249 and the “Relative LC3B-II experession (normalized to β-actin)” value ([6]; Figure 3g, w/o MPP+, 4h) was 1.807 and 1.586 and 1.554.
